T/C data for 18 compounds are collected here from PubChem BioAssay AID330 (DTP/NCI, 2004).

“And” between values parts separate entries of the source, which are not always exact repeats. Identical values can stand only once. Toxic doses and inconclusive results are not listed.

This experiment has as its system P388 leukemia ip, CD2F1 mice, survival T/C. Put plainly: NCI In Vivo Anticancer Drug Screen. Data for tumor model P388 Leukemia (intraperitoneal) in CD2F1 (CDF1) mice. The settings on record: endpoint: median survival time, higher = longer survival. The method, boiled down:
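Mice carrying the transplanted tumor received test compound or vehicle. Survival was recorded in each group, and the value is the treated-group measurement divided by that of the vehicle-treated control group.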

Where [1] appears, read: dose: 25.0 mg/kg/injection, schedule: Q01DX009 (ip), vehicle: Klucel (hydroxypropylcellulose) (HPC).
The mark [2] stands for this setting: dose: 50.0 mg/kg/injection, schedule: Q01DX009 (ip), vehicle: Klucel (hydroxypropylcellulose) (HPC).
The mark [3] stands for this setting: dose: 100.0 mg/kg/injection, schedule: Q01DX009 (ip), vehicle: Klucel (hydroxypropylcellulose) (HPC).
Setting [4] is: dose: 100.0 mg/kg/injection, schedule: Q04DX002 (ip), vehicle: Klucel (hydroxypropylcellulose) (HPC).
The mark [5] stands for this setting: dose: 200.0 mg/kg/injection, schedule: Q04DX002 (ip), vehicle: Klucel (hydroxypropylcellulose) (HPC).
[6] abbreviates: dose: 400.0 mg/kg/injection, schedule: Q04DX002 (ip), vehicle: Klucel (hydroxypropylcellulose) (HPC).
Setting [7] is: dose: 100.0 mg/kg/injection, schedule: Q04DX003 (ip), vehicle: saline with Tween-80.
Where [8] appears, read: dose: 200.0 mg/kg/injection, schedule: Q04DX003 (ip), vehicle: saline with Tween-80.
Where [9] appears, read: dose: 50.0 mg/kg/injection, schedule: Q01DX009 (ip), vehicle: saline with Tween-80.
The mark [10] stands for this setting: dose: 200.0 mg/kg/injection, schedule: Q01DX009 (ip), vehicle: saline with Tween-80.
Where [11] appears, read: dose: 25.0 mg/kg/injection, schedule: Q01DX005 (ip), vehicle: saline with Tween-80.

For `COc1cc2c(c(OC)c1OC)-c1cc3c(cc1C(OC1OC(CO)C(O)C(O)C1O)C1COC(=O)C1C2)OCO3` (centres undefined), the T/C is, setting by setting: (dose: 15.38 mg/kg/injection, schedule: Q01DX005 (ip), vehicle: Klucel (hydroxypropylcellulose) (HPC)) 108 % of control; (dose: 30.75 mg/kg/injection, schedule: Q01DX005 (ip), vehicle: Klucel (hydroxypropylcellulose) (HPC)) 100 % of control; (dose: 61.5 mg/kg/injection, schedule: Q01DX005 (ip), vehicle: Klucel (hydroxypropylcellulose) (HPC)) 113 % of control; (dose: 123.0 mg/kg/injection, schedule: Q01DX005 (ip), vehicle: Klucel (hydroxypropylcellulose) (HPC)) 121 % of control.
For `O=C1c2ccccc2CCCC12OC2c1cccnc1` (centres undefined), the T/C runs as follows: under setting [1], 100 % of control; under setting [2], 100 % of control; under setting [3], 104 % of control.
On to `CC1(C)N[P+]2(Nc3ccccc3O2)OC1=O` (centres undefined), for which the T/C is 97 % of control under setting [4], 93 % of control under setting [5] and 87 % of control under setting [6].
As for `Cc1ccc2c[n+]3ccccc3c(-c3ccccc3)c2c1`, the T/C is 100 % of control (dose: 1.56 mg/kg/injection, schedule: Q04DX003 (ip), vehicle: Klucel (hydroxypropylcellulose) (HPC)) and 100 % of control (dose: 3.12 mg/kg/injection, schedule: Q04DX003 (ip), vehicle: Klucel (hydroxypropylcellulose) (HPC)).
In the case of `CCc1nnc2ccncn12`, the T/C reads like this: under setting [7], 97 % of control; under setting [8], 90 % of control; (dose: 400.0 mg/kg/injection, schedule: Q04DX003 (ip), vehicle: saline with Tween-80) 102 % of control.
As for `CCC(=O)Oc1ccc(C2N(Cc3ccc(N(C)C)cc3)CCCN2Cc2ccc(N(C)C)cc2)cc1`, the T/C is 90 % of control under setting [9] and 90 % of control under setting [10].
Turning to `O=c1cc(-c2ccccc2)[nH]c2[nH]n(-c3ccccc3)c(=O)c12`, the T/C was 110 % of control (dose: 60.0 mg/kg/injection, schedule: Q01DX005 (ip), vehicle: saline with Tween-80); 104 % of control (dose: 120.0 mg/kg/injection, schedule: Q01DX005 (ip), vehicle: saline with Tween-80); 94 % of control (dose: 240.0 mg/kg/injection, schedule: Q01DX005 (ip), vehicle: saline with Tween-80).
As to `CCC/C(=N\NC(=S)N1CC2CCC(CC2)C1)c1ccccn1`, the T/C is, setting by setting: (dose: 6.25 mg/kg/injection, schedule: Q01DX005 (ip), vehicle: saline with Tween-80) 104 % of control and 110 % of control; (dose: 12.5 mg/kg/injection, schedule: Q01DX005 (ip), vehicle: saline with Tween-80) 113 % of control and 116 % of control; under setting [11], 120 % of control.
With `Clc1nn2cnnc2c2ncccc12`, the T/C is 91 % of control (dose: 12.5 mg/kg/injection, schedule: Q01DX009 (ip), vehicle: Klucel (hydroxypropylcellulose) (HPC)); 96 % of control under setting [1]; 92 % of control and 97 % of control under setting [2].
For the compound `O=C1CC2(CCCCC2)C(=O)N1c1ccc(-c2ccc(N3C(=O)CC4(CCCCC4)C3=O)cc2)cc1`, the T/C under setting [4] is 89 % of control, the T/C under setting [5] was 88 % of control and the T/C under setting [6] is 91 % of control.
As for `Oc1cc2ccccc2c(-c2c(O)c(O)cc3ccccc23)c1O`, the T/C runs as follows: under setting [11], 111 % of control; (dose: 50.0 mg/kg/injection, schedule: Q01DX005 (ip), vehicle: saline with Tween-80) 113 % of control; (dose: 100.0 mg/kg/injection, schedule: Q01DX001 (ip), vehicle: saline with Tween-80) 113 % of control and 115 % of control; (dose: 100.0 mg/kg/injection, schedule: Q01DX005 (ip), vehicle: saline with Tween-80) 112 % of control; (dose: 200.0 mg/kg/injection, schedule: Q01DX001 (ip), vehicle: saline with Tween-80) 113 % of control and 121 % of control; (dose: 600.0 mg/kg/injection, schedule: Q01DX001 (ip), vehicle: saline with Tween-80) 124 % of control.
Regarding `O=C(N/N=C\c1cc(Br)cc(Br)c1O)N/N=C/c1cc(Br)cc(Br)c1O`, the T/C is, setting by setting: (dose: 6.25 mg/kg/injection, schedule: Q01DX009 (ip), vehicle: saline with Tween-80) 100 % of control and 110 % of control; (dose: 12.5 mg/kg/injection, schedule: Q01DX009 (ip), vehicle: distilled water + Tween-80) 98 % of control; (dose: 20.0 mg/kg/injection, schedule: Q01DX005 (ip), vehicle: suspension in saline) 106 % of control; (dose: 20.0 mg/kg/injection, schedule: Q01DX005 (iv), vehicle: suspension in saline) 101 % of control; (dose: 25.0 mg/kg/injection, schedule: Q01DX009 (ip), vehicle: distilled water + Tween-80) 106 % of control; (dose: 40.0 mg/kg/injection, schedule: Q01DX005 (iv), vehicle: suspension in saline) 101 % of control. The T/C reads like this: (dose: 50.0 mg/kg/injection, schedule: Q01DX009 (ip), vehicle: distilled water + Tween-80) 120 % of control; (dose: 50.0 mg/kg/injection, schedule: Q01DX009 (oral), vehicle: saline with Tween-80) 103 % of control; (dose: 80.0 mg/kg/injection, schedule: Q01DX005 (iv), vehicle: suspension in saline) 100 % of control; (dose: 100.0 mg/kg/injection, schedule: Q01DX009 (oral), vehicle: saline with Tween-80) 105 % of control; (dose: 160.0 mg/kg/injection, schedule: Q01DX005 (ip), vehicle: suspension in saline) 158 % of control; (dose: 160.0 mg/kg/injection, schedule: Q01DX005 (iv), vehicle: suspension in saline) 100 % of control. For the same compound, the T/C (dose: 200.0 mg/kg/injection, schedule: Q01DX009 (oral), vehicle: saline with Tween-80) was 108 % of control; the T/C (dose: 280.0 mg/kg/injection, schedule: Q01DX005 (ip), vehicle: suspension in saline) is 160 % of control; the T/C (dose: 400.0 mg/kg/injection, schedule: Q01DX009 (oral), vehicle: saline with Tween-80) is 104 % of control; the T/C (dose: 800.0 mg/kg/injection, schedule: Q01DX009 (oral), vehicle: saline with Tween-80) was 104 % of control; the T/C (dose: 1600.0 mg/kg/injection, schedule: Q01DX009 (oral), vehicle: saline with Tween-80) is 106 % of control.
For `CN1C(=O)N(C)C2(C=Cc3ccccc3O2)N(C)C1=O`, the T/C is, setting by setting: (dose: 50.0 mg/kg/injection, schedule: Q04DX003 (ip), vehicle: saline with Tween-80) 92 % of control; under setting [7], 98 % of control; under setting [8], 92 % of control.
With `COc1ccc2nc(NC(=O)Nc3ccc(Cc4ccc(NC(=O)Nc5nc6ccc(OC)cc6s5)cc4)cc3)sc2c1`, the T/C was 100 % of control under setting [2]; 94 % of control under setting [3]; 99 % of control (dose: 200.0 mg/kg/injection, schedule: Q01DX009 (ip), vehicle: Klucel (hydroxypropylcellulose) (HPC)).
`c1ccc(CSc2nnc(NC3CCCCC3)s2)cc1`: the T/C runs as follows: under setting [9], 96 % of control; (dose: 100.0 mg/kg/injection, schedule: Q01DX009 (ip), vehicle: saline with Tween-80) 96 % of control; under setting [10], 100 % of control.
For the compound `O=C(/C=C/c1ccccc1)C/C(=N/O)C(=O)NO`, the T/C is 104 % of control (dose: 60.0 mg/kg/injection, schedule: Q01DX005 (ip), vehicle: saline); 101 % of control (dose: 120.0 mg/kg/injection, schedule: Q01DX005 (ip), vehicle: saline); 103 % of control (dose: 240.0 mg/kg/injection, schedule: Q01DX005 (ip), vehicle: saline).
`CCOP(=O)(Nc1ccc2c(c1)Cc1c-2cc(Br)c(NC(C)=O)c1Br)OCC`: the T/C reads like this: (dose: 50.0 mg/kg/injection, schedule: Q01DX005 (ip), vehicle: Klucel (hydroxypropylcellulose) (HPC)) 94 % of control; (dose: 100.0 mg/kg/injection, schedule: Q01DX005 (ip), vehicle: Klucel (hydroxypropylcellulose) (HPC)) 94 % of control; (dose: 200.0 mg/kg/injection, schedule: Q01DX005 (ip), vehicle: Klucel (hydroxypropylcellulose) (HPC)) 96 % of control.
Take `ClCCN(CCCl)c1ccc(CNCCCNCc2ccc(N(CCCl)CCCl)cc2)cc1`: the T/C was 152 % of control (dose: 2.5 mg/kg/injection, schedule: Q01DX009 (ip), vehicle: saline sonified) and 95 % of control (dose: 5.0 mg/kg/injection, schedule: Q01DX009 (ip), vehicle: saline sonified).
